Assay results as given in patent EP4509511A1, “SUBSTITUTED SPIRO-ISOXAZOLINYL LACTAMS, SALTS THEREOF AND THEIR USE AS HERBICIDALLY ACTIVE SUBSTANCES” (Bayer Aktiengesellschaft, priority 2023, dated 2025).

Assays:
ABUTH = test: Herbicidal post-emergence action - Part II; assay type: in vivo, Abutilon theophrasti
From the text: (§1) Seeds of mono- and dicotyledonous weed plants and crop plants were sown, in plastic or organic planting pots, in sandy loam, covered with soil and grown in a greenhouse under controlled growth conditions. 2 to 3 weeks after sowing, the test plants were sprayed in the single-leaf stage. The compounds according to the invention, formulated in form of wettable powders (WP) or as emulsifiable concentrates (EC), were sprayed onto the green plant parts as aqueous suspension or emulsion, with the addition of 0.5% of an additive, at an application rate of 600 1 of water/ha (converted). The test plants were placed in the greenhouse for ca. 3 weeks under optimum growth conditions, and then the effect of the preparations was assessed visually in comparison with untreated controls (herbicidal effect in percent (%): 100% effect = plants have died off, 0% effect = as control plants). Tables E1 to E10 below show the effects of selected compounds of the general formula (I) according to table 1 on various harmful plants and an application rate corresponding to 320 g/ha or below obtained by the experimental procedure mentioned above. Table E1a: post-emergence activity at 5g/ha against ABUTH in %

AMARE = test: Herbicidal post-emergence action - Part II; assay type: in vivo, Amaranthus retroflexus
From the text: as §1

PHBPU = test: Herbicidal post-emergence action - Part II; assay type: in vivo, Pharbitis purpurea
From the text: as §1

POLCO = test: Herbicidal post-emergence action - Part II; assay type: in vivo, Polygonum convolvulus; conditions: 20 g/ha; Table E6
From the text: as §1

VERPE = test: Herbicidal post-emergence action - Part II; assay type: in vivo, Veronica persica
From the text: as §1

VIOTR = test: Herbicidal post-emergence action - Part II; assay type: in vivo, Viola tricolor
From the text: as §1

ZEAMX = test: Post-emergence effects on crop plants; assay type: in vivo, Zea mays; conditions: crop plant
From the text: as §1, with “F1” for “E1”, “F5” for “E10”, “crop” for “harmful”, “[…]:” for “E1a:”, “ZEAMX” for “ABUTH”

TRZAS = test: Post-emergence effects on crop plants; assay type: in vivo, Triticum aestivum; conditions: crop plant
From the text: as §1, with “F1” for “E1”, “F5” for “E10”, “crop” for “harmful”, “[…]:” for “E1a:”, “ZEAMX” for “ABUTH”

BRSNW = test: Post-emergence effects on crop plants; assay type: in vivo, Brassica napus; conditions: 5 g/ha; Table F5a; crop plant
From the text: as §1, with “F1” for “E1”, “F5” for “E10”, “crop” for “harmful”, “[…]:” for “E1a:”, “ZEAMX” for “ABUTH”

ECHCG = test: Herbicidal post-emergence action - Part II; assay type: in vivo, Echinochloa crus-galli; conditions: 20 g/ha; Table E3a
From the text: as §1

MATIN = test: Herbicidal post-emergence action - Part II; assay type: in vivo, Matricaria inodora
From the text: as §1

SETVI = test: Herbicidal post-emergence action - Part II; assay type: in vivo, Setaria viridis
From the text: as §1

COC(=O)CN1CCC2(CC(c3cc(-n4c(=O)cc(C(F)(F)F)n(C)c4=O)c(F)cc3Cl)=NO2)C1=O (racemic) [Compound I-58]
post-emergence activity against ABUTH (ABUTH; 20 g/ha, Table E1b): 90%
post-emergence activity against AMARE (AMARE; 5 g/ha, Table E2a): 80%
post-emergence activity against AMARE (AMARE; 20 g/ha, Table E2b): 100%
post-emergence activity against PHBPU (PHBPU; 5 g/ha, Table E5a): 90%
post-emergence activity against PHBPU (PHBPU; 20 g/ha, Table E5b): 100%
post-emergence activity against POLCO (POLCO): 100%
post-emergence activity against VERPE (VERPE; 20 g/ha, Table E8b): 100%
post-emergence activity against VIOTR (VIOTR; 5 g/ha, Table E9a): 80%
post-emergence activity against VIOTR (VIOTR; 20 g/ha, Table E9b): 100%
post-emergence activity against ZEAMX (ZEAMX; 5 g/ha, Table F1a): 10%
post-emergence activity against ZEAMX (ZEAMX; 20 g/ha, Table F1b): 20%
post-emergence activity against TRZAS (TRZAS; 5 g/ha, Table F2a): 10%
post-emergence activity against TRZAS (TRZAS; 20 g/ha, Table F2b): 20%
post-emergence activity against BRSNW (BRSNW): 0%

Cn1c(C(F)(F)F)cc(=O)n(-c2cc(C3=NOC4(CCN(Cc5cccc(F)c5F)C4=O)C3)c(Cl)cc2F)c1=O (racemic) [Compound I-33]
post-emergence activity against ABUTH (ABUTH; 5 g/ha, Table E1a): 100%
post-emergence activity against ABUTH (ABUTH; 20 g/ha, Table E1b): 100%
post-emergence activity against AMARE (AMARE; 5 g/ha, Table E2a): 100%
post-emergence activity against AMARE (AMARE; 20 g/ha, Table E2b): 100%
post-emergence activity against ECHCG (ECHCG): 100%
post-emergence activity against MATIN (MATIN; 5 g/ha, Table E4a): 90%
post-emergence activity against MATIN (MATIN; 20 g/ha, Table E4b): 100%
post-emergence activity against PHBPU (PHBPU; 5 g/ha, Table E5a): 100%
post-emergence activity against PHBPU (PHBPU; 20 g/ha, Table E5b): 100%
post-emergence activity against POLCO (POLCO): 100%
post-emergence activity against SETVI (SETVI; 20 g/ha, Table E7b): 100%
post-emergence activity against VERPE (VERPE; 5 g/ha, Table E8a): 100%
post-emergence activity against VERPE (VERPE; 20 g/ha, Table E8b): 100%
post-emergence activity against VIOTR (VIOTR; 5 g/ha, Table E9a): 100%
post-emergence activity against VIOTR (VIOTR; 20 g/ha, Table E9b): 100%
post-emergence activity against TRZAS (TRZAS; 5 g/ha, Table F2a): 20%
post-emergence activity against TRZAS (TRZAS; 20 g/ha, Table F2b): 20%

Cn1c(C(F)(F)F)cc(=O)n(-c2cc(C3=NOC4(CCN(Cc5ccccc5F)C4=O)C3)c(Cl)cc2F)c1=O (racemic) [Compound I-28]
post-emergence activity against ABUTH (ABUTH; 5 g/ha, Table E1a): 80%
post-emergence activity against ABUTH (ABUTH; 20 g/ha, Table E1b): 100%
post-emergence activity against AMARE (AMARE; 5 g/ha, Table E2a): 100%
post-emergence activity against AMARE (AMARE; 20 g/ha, Table E2b): 100%
post-emergence activity against ECHCG (ECHCG): 100%
post-emergence activity against MATIN (MATIN; 20 g/ha, Table E4b): 100%
post-emergence activity against PHBPU (PHBPU; 5 g/ha, Table E5a): 100%
post-emergence activity against PHBPU (PHBPU; 20 g/ha, Table E5b): 100%
post-emergence activity against SETVI (SETVI; 5 g/ha, Table E7a): 80%
post-emergence activity against SETVI (SETVI; 20 g/ha, Table E7b): 100%
post-emergence activity against VERPE (VERPE; 5 g/ha, Table E8a): 100%
post-emergence activity against VERPE (VERPE; 20 g/ha, Table E8b): 100%
post-emergence activity against VIOTR (VIOTR; 5 g/ha, Table E9a): 100%
post-emergence activity against VIOTR (VIOTR; 20 g/ha, Table E9b): 100%
post-emergence activity against ZEAMX (ZEAMX; 5 g/ha, Table F1a): 20%
post-emergence activity against ZEAMX (ZEAMX; 20 g/ha, Table F1b): 20%
post-emergence activity against TRZAS (TRZAS; 5 g/ha, Table F2a): 20%
